From ChEMBL document CHEMBL1201862, “PubChem BioAssay data set” (2004)
The source made the active and inactive calls.

Assays:
[1] = molecular target: T1, Delta-type opioid receptor (Homo sapiens, UniProt P41143); test: SAR Analysis of Antagonists of the DOR Receptor using an Image-Based Assay - Set 2. [Related pubchem assays (depositor defined):AID1777, AID1785, AID1786, AID1966, AID2133, AID2136, AID2284, AID2285, AID2357]; assay type: functional
[2] = molecular target: T2, Kappa-type opioid receptor (Homo sapiens, UniProt P41145); test: SAR analysis of Agonists of the Kappa Opioid Receptor (KOR) using an Image-Based Assay - Set 2. [Related pubchem assays (depositor defined):AID1777, AID1786, AID1966, AID2133, AID2136, AID2284, AID2285, AID2359]; assay type: functional
[3] = molecular target: T2, Kappa-type opioid receptor; test: SAR analysis of small molecule agonists of the kappa opioid receptor via a luminescent beta-arrestin assay - Set 2. [Related pubchem assays (depositor defined):AID1777, AID1785, AID1786, AID1966, AID2133, AID2136, AID2284, AID449737]; assay type: functional
[4] = molecular target: T1, Delta-type opioid receptor; test: SAR Analysis of Agonists of the DOR Receptor using an Image-Based Assay - Set 2. [Related pubchem assays (depositor defined):AID1777, AID1785, AID1786, AID1966, AID2133, AID2136, AID2284, AID2285, AID2370]; assay type: functional
Mu-type opioid receptor [5] = molecular target: T3, Mu-type opioid receptor (Homo sapiens, UniProt P35372); test: SAR Analysis of Antagonists of the MOR Receptor using an Image-Based Assay - Set 2. [Related pubchem assays (depositor defined):AID1777, AID1785, AID1786, AID1966, AID2133, AID2136, AID2284, AID2285, AID2420]; assay type: functional
[6] = molecular target: T2, Kappa-type opioid receptor; test: SAR analysis of Antagonists of the Kappa Opioid Receptor (KOR) using an Image-Based Assay - Set 2. [Related pubchem assays (depositor defined):AID1777, AID1785, AID1786, AID1966, AID2133, AID2136, AID2284, AID2285, AID2348]; assay type: functional
Mu-type opioid receptor [7] = molecular target: T3, Mu-type opioid receptor; test: SAR Analysis of Agonists of the MOR Receptor using an Image-Based Assay - Set 2. [Related pubchem assays (depositor defined):AID1777, AID1785, AID1786, AID1966, AID2133, AID2136, AID2284, AID2285, AID2352]; assay type: functional
Trypsin = Trypsin (Sus scrofa, UniProt P00761); test: trypsin protease activity blockade – biochemical, quenched peptide fluorescence, cherry-pick, selectivity assay for Rce1 protease inhibitor project, dose response (AID 488789)
CAAX prenyl protease 1 = CAAX prenyl protease 1 (Saccharomyces cerevisiae S288c, UniProt P47154); test: yeast CAAX protease Ste24 inhibition – biochemical, S. cerevisiae, plate reader, cherry-pick, dose response (AID 488815)
Cytochrome P450 2C9 [8] = molecular target: T4, Cytochrome P450 2C9 (Homo sapiens, UniProt P11712)
[9] = restored growth of temperature-sensitive Burl-1 yeast – whole organism, S. cerevisiae, Burl-1 ts mutant, luminescence, counter-screen for SUMOylation pathway inhibitor project, dose response (AID 463199); assay type: functional
Cytochrome P450 2C19 = Cytochrome P450 2C19 (Homo sapiens, UniProt P33261); test: Cytochrome panel assay with activity outcomes. Panel member name: p450-cyp2c19 Compounds with AC50 equal or less than 10 uM are considered active; assay type: functional
[10] = tested on: Streptococcus sp. 'group A'; test: Streptococcus pyogenes SK(-)GAS viability under kanamycin – luminescence, BacTiterGlo, confirmation, counter-screen for streptokinase expression inhibitor project, dose response (AID 1900); assay type: functional, organism-based
Streptococcus = test: GAS UMAA2166 growth inhibition – luminescence, BacTiterGlo, counter-screen for streptokinase expression inhibitor project, dose response (AID 1915); assay type: functional, organism-based;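 also: potency for reduction of bacterial viability or growth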
Cytochrome P450 2C9 [11] = molecular target: T4, Cytochrome P450 2C9; remark: listed apart in the source
Cytochrome P450 1A2 = molecular target: T5, Cytochrome P450 1A2 (Homo sapiens, UniProt P05177);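 also: PubChem cytochrome P450 panel assay, CYP1A2 panel member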
T5 sequence (P05177 whole entry): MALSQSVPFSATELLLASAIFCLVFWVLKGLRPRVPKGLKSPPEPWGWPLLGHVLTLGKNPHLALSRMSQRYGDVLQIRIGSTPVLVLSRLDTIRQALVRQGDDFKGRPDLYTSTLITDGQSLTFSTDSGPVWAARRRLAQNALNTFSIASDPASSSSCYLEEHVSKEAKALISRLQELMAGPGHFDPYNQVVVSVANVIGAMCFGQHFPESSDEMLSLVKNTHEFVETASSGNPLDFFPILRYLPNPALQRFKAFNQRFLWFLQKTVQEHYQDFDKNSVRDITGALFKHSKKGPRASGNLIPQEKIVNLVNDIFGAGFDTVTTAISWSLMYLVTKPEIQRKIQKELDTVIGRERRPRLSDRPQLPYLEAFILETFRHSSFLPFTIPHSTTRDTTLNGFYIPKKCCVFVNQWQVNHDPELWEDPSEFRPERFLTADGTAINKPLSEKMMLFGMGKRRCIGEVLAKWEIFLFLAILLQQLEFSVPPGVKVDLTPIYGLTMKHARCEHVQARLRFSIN

Cytochrome P450 2D6 = Cytochrome P450 2D6 (Homo sapiens, UniProt P10635);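 also: CYP2D6 member of a cytochrome P450 panel assay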
Streptokinase A = molecular target: T6, Streptokinase A (Streptococcus pyogenes serotype M1, UniProt P10520); test: viability-normalized secreted streptokinase activity reduction – plasminogen activation absorbance, OD405, dose response (AID 1914); assay type: functional, Streptococcus pyogenes M1 GAS;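 also: secreted streptokinase activity via plasminogen activation per viability signal from cell pellet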
T6 sequence (P10520 whole entry): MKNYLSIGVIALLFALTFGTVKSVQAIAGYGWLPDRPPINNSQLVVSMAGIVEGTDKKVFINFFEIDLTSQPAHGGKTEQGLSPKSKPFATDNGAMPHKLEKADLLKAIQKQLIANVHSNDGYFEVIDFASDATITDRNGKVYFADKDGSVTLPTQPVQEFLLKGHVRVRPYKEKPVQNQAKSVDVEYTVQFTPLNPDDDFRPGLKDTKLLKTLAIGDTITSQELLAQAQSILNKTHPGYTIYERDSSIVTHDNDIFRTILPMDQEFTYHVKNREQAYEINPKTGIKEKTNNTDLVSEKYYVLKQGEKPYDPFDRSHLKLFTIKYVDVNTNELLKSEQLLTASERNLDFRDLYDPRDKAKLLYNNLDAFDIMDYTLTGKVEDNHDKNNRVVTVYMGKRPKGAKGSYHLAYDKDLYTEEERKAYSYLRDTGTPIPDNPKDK

[12] = molecular target: T7, G-protein coupled receptor 35 (Homo sapiens, UniProt Q9HC97); test: inhibition of zaprinast-stimulated GPR35 beta-arrestin translocation – imaging, U2OS, beta-arrestin-GFP, zaprinast agonist, primary screen (AID 2058); assay type: functional;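 also: antagonist potency meaning inhibition of agonist-induced arrestin redistribution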
[13] = molecular target: T7, G-protein coupled receptor 35; test: SAR Analysis for the identification of Selective Antagonists of ERK1/2 Activity in GPR35-Overexpressing U2OS Cells. [Related pubchem assays: 2079, 2058 ]; assay type: functional, cell-based
[14] = HEK-293T cell viability reduction – luminescence, B-cell screen hits, cytotoxicity control for BCR NF-kB inhibitor project, dose response (AID 489021); assay type: functional, cell-based;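 also: HEK-293T cells carrying an NF-kB luciferase reporter; cells exposed to compound for about 14 hours before viability readout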
[15] = molecular target: G-protein coupled receptor 55 (Homo sapiens, UniProt Q9Y2T6); test: blockers of GPR55 signalling, imaged – imaging, image-based, counter-screen for GPR35 antagonist project, SAR follow-up (AID 2397); assay type: functional
G-protein coupled receptor 55, sequence (Q9Y2T6 whole entry): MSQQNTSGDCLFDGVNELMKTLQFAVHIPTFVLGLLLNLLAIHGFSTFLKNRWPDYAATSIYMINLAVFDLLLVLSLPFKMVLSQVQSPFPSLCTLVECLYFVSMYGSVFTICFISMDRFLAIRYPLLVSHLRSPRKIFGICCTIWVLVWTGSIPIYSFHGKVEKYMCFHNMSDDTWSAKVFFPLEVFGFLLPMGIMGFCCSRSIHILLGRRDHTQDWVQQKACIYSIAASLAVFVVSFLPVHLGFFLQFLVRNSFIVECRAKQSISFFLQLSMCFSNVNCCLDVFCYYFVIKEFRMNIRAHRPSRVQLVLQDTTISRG

T2 sequence (P41145 whole entry): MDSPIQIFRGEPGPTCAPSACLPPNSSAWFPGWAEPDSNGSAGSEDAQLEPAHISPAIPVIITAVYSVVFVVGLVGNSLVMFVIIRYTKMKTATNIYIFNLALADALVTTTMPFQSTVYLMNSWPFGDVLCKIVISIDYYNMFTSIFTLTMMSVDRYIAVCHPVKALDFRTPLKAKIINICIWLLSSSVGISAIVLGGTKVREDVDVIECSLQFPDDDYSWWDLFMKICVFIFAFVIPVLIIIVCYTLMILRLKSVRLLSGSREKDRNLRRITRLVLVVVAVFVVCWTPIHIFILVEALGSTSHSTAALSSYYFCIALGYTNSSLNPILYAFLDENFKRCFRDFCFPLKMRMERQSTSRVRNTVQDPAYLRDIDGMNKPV
T1 sequence (P41143 whole entry): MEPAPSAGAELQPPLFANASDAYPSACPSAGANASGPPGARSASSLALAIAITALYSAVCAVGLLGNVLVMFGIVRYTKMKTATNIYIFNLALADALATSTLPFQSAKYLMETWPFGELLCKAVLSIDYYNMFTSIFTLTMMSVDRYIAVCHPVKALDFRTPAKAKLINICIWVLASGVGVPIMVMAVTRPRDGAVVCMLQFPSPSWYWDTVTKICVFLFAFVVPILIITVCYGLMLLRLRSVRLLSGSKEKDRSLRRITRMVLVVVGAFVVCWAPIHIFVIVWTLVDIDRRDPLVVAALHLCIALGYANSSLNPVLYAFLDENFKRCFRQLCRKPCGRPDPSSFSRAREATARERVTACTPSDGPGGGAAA
T3 sequence (P35372 whole entry): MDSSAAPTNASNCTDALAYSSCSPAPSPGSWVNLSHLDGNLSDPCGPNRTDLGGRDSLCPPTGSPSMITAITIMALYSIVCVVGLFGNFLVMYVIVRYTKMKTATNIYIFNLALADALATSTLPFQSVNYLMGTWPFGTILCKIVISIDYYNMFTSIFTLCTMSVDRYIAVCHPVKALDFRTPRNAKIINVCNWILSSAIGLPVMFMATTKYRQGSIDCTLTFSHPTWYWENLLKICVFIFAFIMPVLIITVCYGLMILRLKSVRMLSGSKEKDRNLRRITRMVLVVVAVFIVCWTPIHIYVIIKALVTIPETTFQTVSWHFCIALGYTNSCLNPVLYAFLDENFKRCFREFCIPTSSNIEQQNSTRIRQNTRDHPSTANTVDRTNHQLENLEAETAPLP
T4 sequence (P11712 whole entry): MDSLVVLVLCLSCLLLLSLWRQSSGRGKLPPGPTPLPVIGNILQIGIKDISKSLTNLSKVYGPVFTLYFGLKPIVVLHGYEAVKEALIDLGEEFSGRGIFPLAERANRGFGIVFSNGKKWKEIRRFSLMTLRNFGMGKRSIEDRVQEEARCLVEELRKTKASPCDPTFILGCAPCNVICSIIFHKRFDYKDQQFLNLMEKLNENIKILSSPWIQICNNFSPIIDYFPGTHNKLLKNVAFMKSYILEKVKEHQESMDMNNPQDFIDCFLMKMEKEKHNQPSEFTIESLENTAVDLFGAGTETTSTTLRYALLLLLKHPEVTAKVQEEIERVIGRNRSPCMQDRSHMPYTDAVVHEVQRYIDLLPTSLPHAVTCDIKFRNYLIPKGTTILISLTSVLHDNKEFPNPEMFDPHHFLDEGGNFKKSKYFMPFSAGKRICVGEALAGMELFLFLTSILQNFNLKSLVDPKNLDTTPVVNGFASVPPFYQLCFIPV
T7 sequence (Q9HC97 whole entry): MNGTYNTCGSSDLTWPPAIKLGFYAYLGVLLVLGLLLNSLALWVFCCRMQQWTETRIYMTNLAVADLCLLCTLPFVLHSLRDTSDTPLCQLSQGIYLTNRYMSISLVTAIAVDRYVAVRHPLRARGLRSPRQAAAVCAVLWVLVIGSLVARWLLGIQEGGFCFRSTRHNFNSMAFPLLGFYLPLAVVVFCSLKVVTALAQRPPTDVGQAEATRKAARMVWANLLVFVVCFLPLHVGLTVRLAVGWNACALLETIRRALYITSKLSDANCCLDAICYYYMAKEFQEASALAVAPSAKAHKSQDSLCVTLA
Trypsin, sequence (P00761 whole entry): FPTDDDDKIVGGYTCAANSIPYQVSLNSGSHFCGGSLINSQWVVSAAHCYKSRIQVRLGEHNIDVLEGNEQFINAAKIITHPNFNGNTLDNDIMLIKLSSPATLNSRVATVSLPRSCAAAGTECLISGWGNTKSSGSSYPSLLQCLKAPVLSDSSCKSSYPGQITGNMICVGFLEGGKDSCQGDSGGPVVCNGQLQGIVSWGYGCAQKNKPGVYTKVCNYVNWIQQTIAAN
Cytochrome P450 2C19, sequence (P33261 whole entry): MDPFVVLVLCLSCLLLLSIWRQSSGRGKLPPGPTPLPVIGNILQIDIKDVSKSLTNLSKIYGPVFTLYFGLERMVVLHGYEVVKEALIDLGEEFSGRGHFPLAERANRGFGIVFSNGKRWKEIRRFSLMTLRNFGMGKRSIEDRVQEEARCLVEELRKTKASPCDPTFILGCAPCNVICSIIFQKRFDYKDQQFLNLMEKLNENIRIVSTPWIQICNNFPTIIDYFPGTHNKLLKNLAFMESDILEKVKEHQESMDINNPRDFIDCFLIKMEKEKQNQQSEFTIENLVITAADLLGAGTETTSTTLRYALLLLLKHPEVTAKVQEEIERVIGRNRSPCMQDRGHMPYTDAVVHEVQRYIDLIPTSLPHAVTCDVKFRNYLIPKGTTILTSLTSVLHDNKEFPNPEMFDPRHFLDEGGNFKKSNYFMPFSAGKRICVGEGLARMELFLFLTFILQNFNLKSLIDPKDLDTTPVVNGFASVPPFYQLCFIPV
CAAX prenyl protease 1, sequence (P47154 whole entry): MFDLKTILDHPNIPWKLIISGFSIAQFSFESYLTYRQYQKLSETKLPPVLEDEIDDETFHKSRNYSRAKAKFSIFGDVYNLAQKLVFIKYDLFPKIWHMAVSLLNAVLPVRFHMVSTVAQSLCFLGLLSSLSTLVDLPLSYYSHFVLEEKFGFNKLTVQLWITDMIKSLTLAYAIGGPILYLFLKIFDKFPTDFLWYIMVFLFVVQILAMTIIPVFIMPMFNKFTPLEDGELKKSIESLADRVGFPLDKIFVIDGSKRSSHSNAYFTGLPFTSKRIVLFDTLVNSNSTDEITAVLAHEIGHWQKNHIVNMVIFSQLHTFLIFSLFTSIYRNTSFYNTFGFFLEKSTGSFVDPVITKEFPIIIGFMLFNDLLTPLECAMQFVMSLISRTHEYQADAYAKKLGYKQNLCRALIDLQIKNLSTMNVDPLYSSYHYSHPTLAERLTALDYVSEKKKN
Cytochrome P450 2D6, sequence (P10635 whole entry): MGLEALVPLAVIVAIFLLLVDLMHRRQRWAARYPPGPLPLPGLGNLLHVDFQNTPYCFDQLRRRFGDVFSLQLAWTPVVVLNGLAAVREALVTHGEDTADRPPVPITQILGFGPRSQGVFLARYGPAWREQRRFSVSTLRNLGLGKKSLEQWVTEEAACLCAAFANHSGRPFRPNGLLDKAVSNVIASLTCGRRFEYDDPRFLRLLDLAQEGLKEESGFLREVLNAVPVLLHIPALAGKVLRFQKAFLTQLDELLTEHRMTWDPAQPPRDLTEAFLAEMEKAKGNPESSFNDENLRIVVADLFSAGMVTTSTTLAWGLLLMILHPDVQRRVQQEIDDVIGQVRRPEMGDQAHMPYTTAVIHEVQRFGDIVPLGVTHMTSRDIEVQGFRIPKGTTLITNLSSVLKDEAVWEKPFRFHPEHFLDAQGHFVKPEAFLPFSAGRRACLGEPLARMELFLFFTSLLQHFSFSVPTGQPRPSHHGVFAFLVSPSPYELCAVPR

## COc1ccc(CSc2nnc(-c3ccccn3)n2Cc2ccco2)cc1
[1]
  IC50: > 32 µM (inactive)
[2]
  EC50: 12.4 µM (inactive)
[3]
  EC50: 7.69 µM (active)
[4]
  EC50: > 32 µM (inactive)
Mu-type opioid receptor [5]
  IC50: > 32 µM (inactive)
[6]
  IC50: > 32 µM (inactive)
Mu-type opioid receptor [7]
  EC50: > 32 µM (inactive)

## COc1ccc(-c2cc3ccccc3n2CC(O)CNCCO)cc1 (configuration not stated)
Trypsin
  AC50: 17.3 µM (active)
CAAX prenyl protease 1
  AC50: 11.5 µM (active)
Cytochrome P450 2C9 [8]
  AC50: 17.8 µM (inconclusive)

## O=C(c1cc(F)ccc1F)C1CCCN(C(=O)c2ccc3nccnc3c2)C1 (configuration not stated)
[9]
  AC50: 78.3 µM (active)

## CC1(C)N=C(N)N=C(Nc2ccccc2)N1
Cytochrome P450 2C19
  AC50: inactive
[10]
  EC50: 1.52 µM (active)
Streptococcus
  EC50: > 150 µM (not active)
Cytochrome P450 2C9 [11]
  AC50: inconclusive
Cytochrome P450 1A2
  AC50: inactive
Cytochrome P450 2D6
  AC50: 39.8 µM (inconclusive)
Streptokinase A
  EC50: > 150 µM (not active)

## Cc1ccc(/C=C2\SC(=S)N(CCCC(=O)Nc3ccc(O)cc3)C2=O)cc1
[12]
  IC50: 0.744 µM (active)
[13]
  IC50: 0.253 µM (active)
[14]
  IC50: > 80 µM (inactive)
[15]
  IC50: > 32 µM (inactive)
